Blank lines part the entries; values can stand above or below the compound they belong to.
Tests used:
diabetic rats = details: cited from earlier work
[1] = Ocular pharmacokinetic study in monkey, intravitreal injection on Day 1, 29 and 57; assay type: in vivo, cynomolgus monkeys; details: monkeys; IVT 5 μg/eye Day 1, 29, 57; calculated post third dose, sampling interval Day 57-99
[2] = solution for injection; cited from earlier work

Compound: N=C(N)c1ccc(CNC(=O)c2cnn(Cc3ccccc3)c2)cc1 [ASP-440]
Retinal blood flow abnormalities (diabetic rats): ameliorated
Retinal vascular permeability (diabetic rats): ameliorated

AUC0-last in Ocular Tissue, Aqueous Humor [1]: 1,410 ng · h/mL or ng · h/g
AUC0-last in Ocular Tissue, Choroid-Tissue [1]: 32,200 ng · h/mL or ng · h/g
AUC0-last in Ocular Tissue, Retina- Tissue [1]: 166,000 ng · h/mL or ng · h/g
AUC0-last in Ocular Tissue, Vitreous Humor [1]: 1,110 ng · h/mL or ng · h/g
Compound: CCOc1ccc(C[C@@H](NC(=O)c2ccccc2)C(=O)N[C@@H](Cc2ccccc2)C(=O)NCc2ccc(CN)cc2)cc1.Cl [Compound 1, N-[(R)-1-[(S)-1-(4-Aminomethyl-benzylcarbamoyl)-2-phenyl-ethylcarbamoyl]-2-(4-ethoxy-phenyl)-ethyl]-benzamide hydrochloride]

Compound: Ecallantide
Safety in medical use [2]: risk of anaphylactic reactions

— patent US20200261383A1, “PHARMACEUTICAL COMPOSITIONS” (KALVISTA PHARMACEUTICALS LIMITED, priority 2017, published 2020)
